Paper PMC9316761, “Thiosemicarbazide-Substituted Coumarins as Selective Inhibitors of the Tumor Associated Human Carbonic Anhydrases IX and XII” (Molecules, 2022)

Key:
[1] = target: T1, hCA XII (Homo sapiens, UniProt O43570); experiment: stopped flow CO2 hydrase assay, hCA XII; format: biochemical; conditions: for fold more effective on hCA XII than 6-substituted counterpart: 7-substituted versus 6-substituted regioisomer (20a, 21a)
T1 construct: made in house

[2] = target: T2, hCA IX (Homo sapiens, UniProt Q16790); experiment: stopped flow CO2 hydrase assay, hCA IX; format: biochemical; conditions: for Ki: mean from 3 assays, errors ±5–10%, 6 h preincubation; for fold more potent on hCA IX than 6-substituted counterpart: 7-substituted versus 6-substituted regioisomer (20a, 22a); for fold loss of hCA IX inhibition potency relative to 14a: Ki ratio versus 14a; for fold increase of hCA IX Ki relative to the 4-iodo derivative 18a: Ki ratio versus 18a
T2 construct: made in house

[3] = target: T3, hCA I (Homo sapiens, UniProt P00915); experiment: stopped flow CO2 hydrase assay, hCA I; format: biochemical; conditions: mean from 3 assays, errors ±5–10%; 6 h preincubation
T3 construct: made in house

[4] = target: T4, hCA II (Homo sapiens, UniProt P00918); experiment: stopped flow CO2 hydrase assay, hCA II; format: biochemical; conditions: mean from 3 assays, errors ±5–10%; 6 h preincubation
T4 construct: made in house

T1 sequence (O43570 25-354): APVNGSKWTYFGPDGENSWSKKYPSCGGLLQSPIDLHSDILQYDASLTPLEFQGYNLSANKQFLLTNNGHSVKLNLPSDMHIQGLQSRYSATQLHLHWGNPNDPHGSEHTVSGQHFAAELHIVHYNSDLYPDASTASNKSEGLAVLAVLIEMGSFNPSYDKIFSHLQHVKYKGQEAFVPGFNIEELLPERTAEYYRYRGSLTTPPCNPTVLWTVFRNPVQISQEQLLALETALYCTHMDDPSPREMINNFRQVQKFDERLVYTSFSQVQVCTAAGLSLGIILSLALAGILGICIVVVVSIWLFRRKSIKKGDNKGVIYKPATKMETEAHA
T3 sequence (P00915 whole entry): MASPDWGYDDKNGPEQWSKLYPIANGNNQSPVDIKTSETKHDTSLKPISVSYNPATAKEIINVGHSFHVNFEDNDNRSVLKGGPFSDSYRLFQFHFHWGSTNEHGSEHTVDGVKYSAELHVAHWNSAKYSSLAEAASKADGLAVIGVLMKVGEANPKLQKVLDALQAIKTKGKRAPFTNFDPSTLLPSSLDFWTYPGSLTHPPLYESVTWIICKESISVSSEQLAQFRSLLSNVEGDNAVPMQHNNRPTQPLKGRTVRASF

SMILES | Ki [1] | melting point | Ki [2] | Ki [3] | Ki [4] | fold more effective on hCA XII than 6-substituted counterpart [1] | fold more potent on hCA IX than 6-substituted counterpart [2] | fold loss of hCA IX inhibition potency relative to 14a [2] | fold more potent on hCA IX than on hCA XII ([2]; Ki hCA XII / Ki hCA IX) | fold increase of hCA IX Ki relative to the 4-iodo derivative 18a [2] | fold less effective on hCA IX than on hCA XII ([1]; Ki hCA IX / Ki hCA XII) | fold increase of hCA IX Ki relative to 14b ([2]; Ki ratio versus 14b)
O=C(COc1ccc2ccc(=O)oc2c1)NNC(=S)Nc1ccc(I)cc1 [Compound 18b, N-(4-Iodophenyl)-2-(2-((2-oxo-2H-chromen-7-yl)oxy)acetyl)hydrazine-1-carbothioamide] | 0.0075 µM | 164 to 166 °C | 721 nM | > 10000 nM | > 10000 nM |  |  |  |  |  |  | 
O=C(COc1ccc2ccc(=O)oc2c1)NNC(=S)Nc1ccc(C(F)(F)F)cc1 [Compound 20b, N-(4-(Trifluoromethyl)phenyl)-2-(2-((2-oxo-2H-chromen-7-yl)oxy)acetyl)hydrazine-1-carbothioamide] | 0.0566 µM |  | 70 nM | > 10000 nM | > 10000 nM | 5.4 fold | 1.3 fold |  |  |  |  | 
O=C(COc1ccc2ccc(=O)oc2c1)NNC(=S)Nc1cccc([N+](=O)[O-])c1 [Compound 21b, N-(3-Nitrophenyl)-2-(2-((2-oxo-2H-chromen-7-yl)oxy)acetyl)hydrazine-1-carbothioamide] | 0.0086 µM | 214 to 215 °C | 9.1 nM | > 10000 nM | > 10000 nM | 38.2 fold |  |  |  |  |  | 
O=C(COc1ccc2oc(=O)ccc2c1)NNC(=S)Nc1ccc(I)cc1 [Compound 18a, N-(4-Iodophenyl)-2-(2-((2-oxo-2H-chromen-6-yl)oxy)acetyl)hydrazine-1-carbothioamide] | 0.0084 µM | 160 to 162 °C | 9.6 nM | > 10000 nM | > 10000 nM |  |  |  |  |  |  | 
Cc1ccc(NC(=S)NNC(=O)COc2ccc3oc(=O)ccc3c2)cc1 [Compound 15a, N-(p-Tolyl)-2-(2-((2-oxo-2H-chromen-6-yl)oxy)acetyl)hydrazine-1-carbothioamide] | 0.709 µM | 167 to 169 °C | 234 nM | > 10000 nM | > 10000 nM |  |  | 26.6 fold |  |  |  | 
O=C(COc1ccc2ccc(=O)oc2c1)NNC(=S)Nc1ccc(Cl)cc1 [Compound 16b, N-(4-Chlorophenyl)-2-(2-((2-oxo-2H-chromen-7-yl)oxy)acetyl)hydrazine-1-carbothioamide] | 0.866 µM | 202 to 203 °C | 55 nM | > 10000 nM | > 10000 nM |  |  |  |  |  |  | 
O=C(COc1ccc2oc(=O)ccc2c1)NNC(=S)Nc1ccccc1 [Compound 14a, N-Phenyl-2-(2-((2-oxo-2H-chromen-6-yl)oxy)acetyl)hydrazine-1-carbothioamide] | 0.739 µM | 173 to 175 °C | 8.8 nM | > 10000 nM | > 10000 nM |  |  |  | 84 fold |  |  | 
CSc1ccc(NC(=S)NNC(=O)COc2ccc3oc(=O)ccc3c2)cc1 [Compound 22a, N-(4-(Methylthio)phenyl)-2-(2-((2-oxo-2H-chromen-6-yl)oxy)acetyl)hydrazine-1-carbothioamide] | 0.004 µM | 148 to 150 °C | 57 nM | > 10000 nM | > 10000 nM |  |  |  |  | 5.9 fold | 14 fold | 
Cc1ccc(NC(=S)NNC(=O)COc2ccc3ccc(=O)oc3c2)cc1 [Compound 15b, N-(p-Tolyl)-2-(2-((2-oxo-2H-chromen-7-yl)oxy)acetyl)hydrazine-1-carbothioamide] | 0.684 µM | 147 to 149 °C (dec.) | 78 nM | > 10000 nM | > 10000 nM |  |  |  |  |  |  | 1.7 fold
O=C(COc1ccc2oc(=O)ccc2c1)NNC(=S)Nc1cccc([N+](=O)[O-])c1 [Compound 21a, N-(3-Nitrophenyl)-2-(2-((2-oxo-2H-chromen-6-yl)oxy)acetyl)hydrazine-1-carbothioamide] | 0.328 µM | 210 to 212 °C | 71 nM | > 10000 nM | > 10000 nM |  |  |  |  |  |  | 

Further compounds by falling Ki [1], results first:

Ki [1] | melting point | Ki [2] | Ki [3] | Ki [4] | fold more effective on hCA XII than 6-substituted counterpart [1] | fold more potent on hCA IX than 6-substituted counterpart [2] | fold loss of hCA IX inhibition potency relative to 14a [2] | fold more potent on hCA IX than on hCA XII ([2]; Ki hCA XII / Ki hCA IX) | fold increase of hCA IX Ki relative to the 4-iodo derivative 18a [2] | fold less effective on hCA IX than on hCA XII ([1]; Ki hCA IX / Ki hCA XII) | fold increase of hCA IX Ki relative to 14b ([2]; Ki ratio versus 14b) | SMILES
0.745 µM | 119 to 121 °C (dec.) | 64 nM | > 10000 nM | > 10000 nM |  |  |  |  |  |  |  | O=C(COc1ccc2ccc(=O)oc2c1)NNC(=S)Nc1ccc(F)cc1 [Compound 17b, N-(4-Fluorophenyl)-2-(2-((2-oxo-2H-chromen-7-yl)oxy)acetyl)hydrazine-1-carbothioamide]
0.743 µM | 155 to 156 °C | 46 nM | > 10000 nM | > 10000 nM |  |  | 5.2 fold |  |  |  |  | O=C(COc1ccc2ccc(=O)oc2c1)NNC(=S)Nc1ccccc1 [Compound 14b, N-Phenyl-2-(2-((2-oxo-2H-chromen-7-yl)oxy)acetyl)hydrazine-1-carbothioamide]
0.608 µM | 163 to 165 °C | 48 nM | > 10000 nM | > 10000 nM |  |  |  |  |  |  |  | O=C(COc1ccc2oc(=O)ccc2c1)NNC(=S)Nc1ccc(Cl)cc1 [Compound 16a, N-(4-Chlorophenyl)-2-(2-((2-oxo-2H-chromen-6-yl)oxy)acetyl)hydrazine-1-carbothioamide]
0.573 µM | 168 to 169 °C | 9.4 nM | > 10000 nM | > 10000 nM |  |  |  |  |  |  |  | O=C(COc1ccc2ccc(=O)oc2c1)NNC(=S)Nc1cccc(I)c1 [Compound 19b, N-(3-Iodophenyl)-2-(2-((2-oxo-2H-chromen-7-yl)oxy)acetyl)hydrazine-1-carbothioamide]
0.494 µM | 181 to 183 °C | 39 nM | > 10000 nM | > 10000 nM |  |  |  |  |  |  |  | O=C(COc1ccc2oc(=O)ccc2c1)NNC(=S)Nc1ccc(F)cc1 [Compound 17a, N-(4-Fluorophenyl)-2-(2-((2-oxo-2H-chromen-6-yl)oxy)acetyl)hydrazine-1-carbothioamide]
0.473 µM | 224 to 226 °C | 437 nM | > 10000 nM | > 10000 nM |  |  |  |  |  |  |  | N#Cc1ccc(NC(=S)NNC(=O)COc2ccc3ccc(=O)oc3c2)cc1 [Compound 23b, N-(4-Cyanophenyl)-2-(2-((2-oxo-2H-chromen-7-yl)oxy)acetyl)hydrazine-1-carbothioamide]
0.306 µM |  | 92 nM | > 10000 nM | > 10000 nM |  |  |  |  | 9.6 fold |  |  | O=C(COc1ccc2oc(=O)ccc2c1)NNC(=S)Nc1ccc(C(F)(F)F)cc1 [Compound 20a, N-(4-(Trifluoromethyl)phenyl)-2-(2-((2-oxo-2H-chromen-6-yl)oxy)acetyl)hydrazine-1-carbothioamide]
0.079 µM | 144 to 146 °C | 9.6 nM | > 10000 nM | > 10000 nM |  |  |  |  |  |  |  | O=C(COc1ccc2oc(=O)ccc2c1)NNC(=S)Nc1cccc(I)c1 [Compound 19a, N-(3-Iodophenyl)-2-(2-((2-oxo-2H-chromen-6-yl)oxy)acetyl)hydrazine-1-carbothioamide]
0.0046 µM | 163 to 164 °C | 33 nM | > 10000 nM | > 10000 nM |  | 1.7 fold |  |  |  |  |  | CSc1ccc(NC(=S)NNC(=O)COc2ccc3ccc(=O)oc3c2)cc1 [Compound 22b, N-(4-(Methylthio)phenyl)-2-(2-((2-oxo-2H-chromen-7-yl)oxy)acetyl)hydrazine-1-carbothioamide]
